Assay results published in article PMC10221074, “Functional Profiling of the A-Family of Venom Peptides from the Wolf Spider Lycosa shansia” (Toxins, 2023).

Assays:
G. mellonella larvae = test: Insecticidal activity by injection into larvae; type: in vivo, Galleria mellonella
Experimental: Insecticidal activity was determined using fourth and fifth instar G. mellonella larvae (L4/L5) obtained from Fauna Topics Zoobedarf Zucht und Handels GmbH (Marbach am Neckar, Germany). Because spider venom is injected via chelicerae, we opted for an injection-based assay to reflect the natural process of envenomation as described earlier. The peptides were dissolved in a 1:1 mixture of DMSO and water to a final concentration of 10 mmol/L. We injected 50 ng of each peptide into the pseudopodium using Omnican-F, 0.30 × 12 mm/G 30 × 1/2”, a 1 mL syringe adjusted to a WPI manual microsyringe injector setup. Injections with water, DMSO/water (1:1) and ethanol (90%) were used as controls, alongside untreated specimens. Insecticidal activity screenings were performed in cohorts of 10 larvae with 3 replicates (30 specimens per treatment or control). […] Survival was monitored every 24 h for 5 days. Mortality was calculated based on the ratio of dead to injected specimens.

[1] = test system: Staphylococcus epidermidis DSM 28319; test: Antibacterial growth assay (OD600); details: for Bacterial growth relative to medium, S. epidermidis, replicate 1 / Bacterial growth relative to medium, S. epidermidis, replicate 2 / Bacterial growth relative to medium, S. epidermidis, replicate 3: OD600, medium = 100, MH II broth, 37 °C, peptide 200 µM mixed 50 µL + 50 µL with bacteria, Figure 7: 48 h; for Bacterial growth relative to medium, S. epidermidis, replicate 1: replicate column 1; for Bacterial growth relative to medium, S. epidermidis, replicate 2: replicate column 2; for Bacterial growth relative to medium, S. epidermidis, replicate 3: replicate column 3; for Antibacterial activity (in words): S. epidermidis DSM 28319, growth after 48 h
Experimental: (§1) Cryo-conserved cultures of selected bacterial strains (Table 4) were transferred to Tryptic Soy Agar (TSA) plates (Carl Roth) with a sterile inoculation loop, sealed with Parafilm (BEMIS, Neenah, WI, USA), and incubated for 1–2 days at 37 °C depending on growth. Single colonies were picked and transferred into 2–3 mL of the Mueller–Hinton II (MH II) broth (BD, Heidelberg, Germany). The bacteria were cultivated overnight, subcultured on fresh medium and grown for 3–4 h before testing at 37 °C, with shaking at 180 rpm. We measured the optical density at 600 nm (OD600) of 1 mL of the bacterial suspensions in polystyrene cuvettes (SARSTED, Nümbrecht, Germany) using an Ultrospec 10 spectrophotometer (Biochrome, Cambridge, UK). We then diluted them with the MH II medium to the preferred OD600 (Table 2). The peptides were dissolved in DMSO to generate 10 mmol/L stocks and diluted with the MH II medium to 200 µM before the assay. We used 10 µg/mL (~40 µg/mL for S. epidermidis) gentamicin and colistin (Sigma-Aldrich, Taufkirchen, Germany), DMSO and the medium only as controls. The bacteria were transferred to 96-multiwell plates with a final volume of 100 µL per well (50 µL bacterial suspension, and 50 µL test peptide). The OD600 was measured at 0, 24 and 48 h using a BioTek Eon microplate reader followed by analysis with Gen5 v2.09.

[2] = test system: panel of seven bacterial strains; test: Antibacterial growth assay (OD600), statements on the whole panel; type: cell-based; details: growth after 48 h
[3] = test system: Micrococcus luteus DSM 20030; test: Antibacterial growth assay (OD600); details: for Antibacterial activity (in words): M. luteus DSM 20030, growth after 48 h; for Bacterial growth relative to medium, M. luteus, replicate 1 / Bacterial growth relative to medium, M. luteus, replicate 2 / Bacterial growth relative to medium, M. luteus, replicate 3: OD600, medium = 100, MH II broth, 37 °C, peptide 200 µM mixed 50 µL + 50 µL with bacteria, Figure 7: 48 h; for Bacterial growth relative to medium, M. luteus, replicate 1: replicate column 1; for Bacterial growth relative to medium, M. luteus, replicate 2: replicate column 2; for Bacterial growth relative to medium, M. luteus, replicate 3: replicate column 3
Experimental: as §1

A/Hamburg/05/2009 (H1N1) = type: cell-based, influenza virus
[4] = test system: Staphylococcus aureus DSM 2569; test: Antibacterial growth assay (OD600); details: for Bacterial growth relative to medium, S. aureus, replicate 1 / Bacterial growth relative to medium, S. aureus, replicate 2 / Bacterial growth relative to medium, S. aureus, replicate 3: OD600, medium = 100, MH II broth, 37 °C, peptide 200 µM mixed 50 µL + 50 µL with bacteria, Figure 7: 48 h; for Bacterial growth relative to medium, S. aureus, replicate 1: replicate column 1; for Bacterial growth relative to medium, S. aureus, replicate 2: replicate column 2; for Bacterial growth relative to medium, S. aureus, replicate 3: replicate column 3; for Antibacterial activity (in words): S. aureus DSM 2569, growth after 48 h
A/Hessen/1/2003 (H3N2) = type: cell-based, influenza virus
[5] = test system: Listeria monocytogenes DSM 20600; test: Antibacterial growth assay (OD600); details: for Bacterial growth relative to medium, L. monocytogenes, replicate 1 / Bacterial growth relative to medium, L. monocytogenes, replicate 2 / Bacterial growth relative to medium, L. monocytogenes, replicate 3: OD600, medium = 100, MH II broth, 37 °C, peptide 200 µM mixed 50 µL + 50 µL with bacteria, Figure 7: 48 h; for Bacterial growth relative to medium, L. monocytogenes, replicate 1: replicate column 1; for Bacterial growth relative to medium, L. monocytogenes, replicate 2: replicate column 2; for Bacterial growth relative to medium, L. monocytogenes, replicate 3: replicate column 3
[6] = test system: Escherichia coli BL21(DE3); test: Antibacterial growth assay (OD600); details: for Bacterial growth relative to medium, E. coli, replicate 1 / Bacterial growth relative to medium, E. coli, replicate 2 / Bacterial growth relative to medium, E. coli, replicate 3: OD600, medium = 100, MH II broth, 37 °C, peptide 200 µM mixed 50 µL + 50 µL with bacteria, Figure 7: 48 h; for Bacterial growth relative to medium, E. coli, replicate 1: replicate column 1; for Bacterial growth relative to medium, E. coli, replicate 2: replicate column 2; for Bacterial growth relative to medium, E. coli, replicate 3: replicate column 3
Experimental: as §1

[7] = test system: Pseudomonas aeruginosa DSM 50071; test: Antibacterial growth assay (OD600); details: OD600, medium = 100, MH II broth, 37 °C, peptide 200 µM mixed 50 µL + 50 µL with bacteria, Figure 7: 48 h; for Bacterial growth relative to medium, P. aeruginosa (50071), replicate 1: replicate column 1; for Bacterial growth relative to medium, P. aeruginosa (50071), replicate 2: replicate column 2; for Bacterial growth relative to medium, P. aeruginosa (50071), replicate 3: replicate column 3
[8] = test system: Pseudomonas aeruginosa DSM 1117; test: Antibacterial growth assay (OD600); details: OD600, medium = 100, MH II broth, 37 °C, peptide 200 µM mixed 50 µL + 50 µL with bacteria, Figure 7: 48 h; for Bacterial growth relative to medium, P. aeruginosa (1117), replicate 1: replicate column 1; for Bacterial growth relative to medium, P. aeruginosa (1117), replicate 2: replicate column 2; for Bacterial growth relative to medium, P. aeruginosa (1117), replicate 3: replicate column 3
Experimental: as §1

[9] = test system: B/Malaysia/2506/2004 (B-Mal); type: cell-based, influenza virus

Compound	Bacterial growth relative to medium, S. epidermidis, replicate 1 [1]	Bacterial growth relative to medium, S. epidermidis, replicate 2 [1]	Bacterial growth relative to medium, S. epidermidis, replicate 3 [1]	Bacterial growth relative to medium, M. luteus, replicate 1 [3]	Bacterial growth relative to medium, M. luteus, replicate 2 [3]	Bacterial growth relative to medium, M. luteus, replicate 3 [3]	Viability of infected cells relative to aprotinin, Replicate 1 (A/Hamburg/05/2009 (H1N1))	Viability of infected cells relative to aprotinin, Replicate 2 (A/Hamburg/05/2009 (H1N1))	Viability of infected cells relative to aprotinin, Replicate 3 (A/Hamburg/05/2009 (H1N1))	Bacterial growth relative to medium, S. aureus, replicate 1 [4]	Bacterial growth relative to medium, S. aureus, replicate 2 [4]	Bacterial growth relative to medium, S. aureus, replicate 3 [4]	Viability of infected cells relative to aprotinin, Replicate 1 (A/Hessen/1/2003 (H3N2))	Viability of infected cells relative to aprotinin, Replicate 2 (A/Hessen/1/2003 (H3N2))	Bacterial growth relative to medium, L. monocytogenes, replicate 1 [5]	Bacterial growth relative to medium, L. monocytogenes, replicate 2 [5]	Bacterial growth relative to medium, L. monocytogenes, replicate 3 [5]	Bacterial growth relative to medium, E. coli, replicate 1 [6]	Bacterial growth relative to medium, E. coli, replicate 2 [6]	Bacterial growth relative to medium, E. coli, replicate 3 [6]	other results
CCO [EtOH, ethanol, reference compound]																					Mortality (G. mellonella larvae; ethanol injected as positive control, after 5 days): up to 50%
SLLGLLDVVKNTVGQTG [LS-AMP-A9]	52.3672	52.2824	65.3172	52.4959	91.4416	32.7594	0.04771	0.03968	0.02362	57.4133	67.8221	95.0991	0.1782	0.2232	56.5719	67.4623	66.1408	70.1329	70.7996	35.5653	Antibacterial activity (in words) [1]: able to decrease the growth; Antibacterial activity over the panel (in words) [2]: inhibited the growth of most of the bacteria except two; Antibacterial activity (in words) [3]: able to decrease the growth; Antibacterial activity (in words) [4]: able to decrease the growth; Viability of infected cells relative to aprotinin, Replicate 3 (A/Hessen/1/2003 (H3N2)): 0.05605; Antibacterial activity (in words) ([5]; L. monocytogenes DSM 20600, growth after 48 h): able to decrease the growth; Antibacterial activity (in words) ([6]; E. coli BL21(DE3), growth after 48 h): able to decrease the growth; Bacterial growth relative to medium, P. aeruginosa (50071), replicate 1 [7]: 97.5053; Bacterial growth relative to medium, P. aeruginosa (50071), replicate 2 [7]: 110.589; Bacterial growth relative to medium, P. aeruginosa (50071), replicate 3 [7]: 87.613; Bacterial growth relative to medium, P. aeruginosa (1117), replicate 1 [8]: 56.3665; Bacterial growth relative to medium, P. aeruginosa (1117), replicate 2 [8]: 70.6926; Bacterial growth relative to medium, P. aeruginosa (1117), replicate 3 [8]: 77.8728; Viability of infected cells relative to aprotinin, Replicate 1 [9]: 0.09007; Viability of infected cells relative to aprotinin, Replicate 2 [9]: 0.06966; Viability of infected cells relative to aprotinin, Replicate 3 [9]: 0.05846
SLLGLLDVVKNTVGQTGLL [LS-AMP-A8]	79.7615	73.3026	77.5582	72.2222	103.716	73.0273	0.02555	0.01502	0.01283	67.0732	73.4467	85.2226	0.08185	0.1031	57.9391	71.2645	69.2971	91.7388	101.043	53.4577	Antibacterial activity over the panel (in words) [2]: inhibited the growth of most of the bacteria except two; Antibacterial activity (in words) [3]: no activity; Viability of infected cells relative to aprotinin, Replicate 3 (A/Hessen/1/2003 (H3N2)): 0.0008759; Bacterial growth relative to medium, P. aeruginosa (50071), replicate 1 [7]: 99.79; Bacterial growth relative to medium, P. aeruginosa (50071), replicate 2 [7]: 113.132; Bacterial growth relative to medium, P. aeruginosa (50071), replicate 3 [7]: 91.0686; Bacterial growth relative to medium, P. aeruginosa (1117), replicate 1 [8]: 76.1322; Bacterial growth relative to medium, P. aeruginosa (1117), replicate 2 [8]: 81.7612; Bacterial growth relative to medium, P. aeruginosa (1117), replicate 3 [8]: 75.3667; Viability of infected cells relative to aprotinin, Replicate 1 [9]: 0.03065; Viability of infected cells relative to aprotinin, Replicate 2 [9]: 0.0169; Viability of infected cells relative to aprotinin, Replicate 3 [9]: 0.06181
SLLGLLDVVKSKIGQT [LS-AMP-A15]	84.6766	83.7361	92.3812	87.1981	100.338	54.7585	0.04491	0.03692	0.03514	62.2914	63.5709	94.1265	0.1635	0.1644	129.232	92.1308	85.5096	103.062	89.9768	48.0425	Antibacterial activity (in words) [1]: limited activity; Antibacterial activity (in words) [4]: limited activity; Viability of infected cells relative to aprotinin, Replicate 3 (A/Hessen/1/2003 (H3N2)): 0.1569; Viability of infected cells relative to aprotinin, Replicate 4 (A/Hessen/1/2003 (H3N2); […], replicate 4 (additional internal control)): 0.1576; Insecticidal effect on larvae (in words) (G. mellonella larvae; 50 ng peptide injected, 3 cohorts of 10 larvae, survival monitored for 5 days): Individual dead insects; Bacterial growth relative to medium, P. aeruginosa (50071), replicate 1 [7]: 101.444; Bacterial growth relative to medium, P. aeruginosa (50071), replicate 2 [7]: 115.913; Bacterial growth relative to medium, P. aeruginosa (50071), replicate 3 [7]: 84.6093; Bacterial growth relative to medium, P. aeruginosa (1117), replicate 1 [8]: 80.9004; Bacterial growth relative to medium, P. aeruginosa (1117), replicate 2 [8]: 77.0275; Bacterial growth relative to medium, P. aeruginosa (1117), replicate 3 [8]: 69.3765; Viability of infected cells relative to aprotinin, Replicate 1 [9]: 0.05034; Viability of infected cells relative to aprotinin, Replicate 2 [9]: 0.05082; Viability of infected cells relative to aprotinin, Replicate 3 [9]: 0.05878
SLLGLLDVVKSKVGQTGLL [LS-AMP-A18]	95.0126	84.2348	89.1297	143.237	115.766	65.7102	0.03159	0.03911	0.01637	75	66.2525	80.9203	0.1207	0.1378	145.215	105.128	13.7733	110.572	96.6395	68.0936	Antibacterial activity over the panel (in words) [2]: largely inactive; Bacterial growth relative to medium, P. aeruginosa (50071), replicate 1 [7]: 102.836; Bacterial growth relative to medium, P. aeruginosa (50071), replicate 2 [7]: 105.708; Bacterial growth relative to medium, P. aeruginosa (50071), replicate 3 [7]: 87.0813; Bacterial growth relative to medium, P. aeruginosa (1117), replicate 1 [8]: 87.8796; Bacterial growth relative to medium, P. aeruginosa (1117), replicate 2 [8]: 68.3606; Bacterial growth relative to medium, P. aeruginosa (1117), replicate 3 [8]: 68.2151; Viability of infected cells relative to aprotinin, Replicate 1 [9]: 0.06546; Viability of infected cells relative to aprotinin, Replicate 2 [9]: 0.04295; Viability of infected cells relative to aprotinin, Replicate 3 [9]: 0.0512
